Measurements taken from patent US11919859B2, “Herbicidal mixture, composition and method” (FMC Corporation, priority 2017, dated 2024).

How the values were obtained:
[1] = test system: Ryegrass, Italian (Italian ryegrass, Lolium multiflorum); experiment: Test B preemergence, Italian ryegrass; type: in vivo; conditions: approximately 10 d
Source text: (§1) Seeds of plant species selected from barnyardgrass (Echinochloa crus-galli), kochia (Kochia scoparia), ragweed (common ragweed, Ambrosia elatior), Ryegrass, Italian (Italian ryegrass, Lolium multiflorum), foxtail, green (green foxtail, Setaria viridis), and pigweed (Amaranthus retroflexus) were planted into a blend of loam soil and sand and treated preemergence with a directed soil spray using test chemicals formulated in a non-phytotoxic solvent mixture which included a surfactant.
(§2) At the same time, plants selected from these weed species and also wheat (Triticum aestivum), corn (Zea mays), blackgrass (Alopecurus myosuroides), and galium (catchweed bedstraw, Galium aparine) were planted in pots containing the same blend of loam soil and sand and treated with postemergence applications of test chemicals formulated in the same manner. Plants ranged in height from 2 to 10 cm and were in the one- to two-leaf stage for the postemergence treatment. Treated plants and untreated controls were maintained in a greenhouse for approximately 10 d, after which time all treated plants were compared to untreated controls and visually evaluated for injury. Plant response ratings, summarized in Table B, are based on a 0 to 100 scale where 0 is no effect and 100 is complete control. A dash (-) response means no test result.

[2] = test system: barnyardgrass (Echinochloa crus-galli); experiment: Test B postemergence, barnyardgrass; type: in vivo; conditions: approximately 10 d
Source text: as §1, §2

[3] = test system: wheat (Triticum aestivum); experiment: Test B postemergence, wheat; type: in vivo; conditions: approximately 10 d
Source text: as §1, §2

[4] = test system: ragweed (common ragweed, Ambrosia elatior); experiment: Test B postemergence, ragweed; type: in vivo; conditions: approximately 10 d
Source text: as §1, §2

[5] = test system: pigweed (Amaranthus retroflexus); experiment: Test B preemergence, pigweed; type: in vivo; conditions: approximately 10 d
Source text: as §1, §2

rice (Oryza sativa) = conditions: in vivo
Protocol: (§3) Test C Plant species in the flooded paddy test selected from rice (Oryza sativa), sedge, umbrella (small-flower umbrella sedge, Cyperus difformis), ducksalad (Heteranthera limosa), and barnyardgrass (Echinochloa crus-galli) were grown to the 2-leaf stage for testing. At time of treatment, test pots were flooded to 3 cm above the soil surface, treated by application of test compounds directly to the paddy water, and then maintained at that water depth for the duration of the test. Treated plants and controls were maintained in a greenhouse for 13 to 15 d, after which time all species were compared to controls and visually evaluated. Plant response ratings, summarized in Table C, are based on a scale of 0 to 100 where 0 is no effect and 100 is complete control. A dash (-) response means no test result.

[6] = test system: blackgrass (Alopecurus myosuroides); experiment: Test B postemergence, blackgrass; type: in vivo; conditions: approximately 10 d
Source text: as §1, §2

[7] = test system: ragweed (common ragweed, Ambrosia elatior); experiment: Test B preemergence, ragweed; type: in vivo; conditions: approximately 10 d
Source text: as §1, §2

[8] = test system: sedge, umbrella (small-flower umbrella sedge, Cyperus difformis); experiment: Test C flooded paddy test, umbrella sedge; type: in vivo; conditions: Flood; 250 g ai/ha; 13 to 15 d
Protocol: as §3

[9] = test system: pigweed (Amaranthus retroflexus); experiment: Test B postemergence, pigweed; type: in vivo; conditions: approximately 10 d
Source text: as §1, §2

kochia (Kochia scoparia) [10] = experiment: Test B preemergence, kochia; type: in vivo; conditions: approximately 10 d
Source text: as §1, §2

[11] = test system: foxtail, green (green foxtail, Setaria viridis); experiment: Test B postemergence, green foxtail; type: in vivo; conditions: approximately 10 d
Source text: as §1, §2

[12] = test system: barnyardgrass (Echinochloa crus-galli); experiment: Test B preemergence, barnyardgrass; type: in vivo; conditions: approximately 10 d
Source text: as §1, §2

[13] = test system: barnyardgrass (Echinochloa crus-galli); experiment: Test C flooded paddy test, barnyardgrass; type: in vivo; conditions: Flood; 250 g ai/ha; 13 to 15 d
Protocol: as §3

corn (Zea mays) = experiment: Test B postemergence, corn; type: in vivo; conditions: approximately 10 d
Source text: as §1, §2

[14] = test system: foxtail, green (green foxtail, Setaria viridis); experiment: Test B preemergence, green foxtail; type: in vivo; conditions: approximately 10 d
Source text: as §1, §2

[15] = test system: galium (catchweed bedstraw, Galium aparine); experiment: Test B postemergence, galium; type: in vivo; conditions: approximately 10 d
Source text: as §1, §2

kochia (Kochia scoparia) [16] = experiment: Test B postemergence, kochia; type: in vivo; conditions: approximately 10 d
Source text: as §1, §2

[17] = test system: Ryegrass, Italian (Italian ryegrass, Lolium multiflorum); experiment: Test B postemergence, Italian ryegrass; type: in vivo; conditions: approximately 10 d
Source text: as §1, §2

[18] = test system: ducksalad (Heteranthera limosa); experiment: Test C flooded paddy test, ducksalad; type: in vivo; conditions: Flood; 250 g ai/ha; 13 to 15 d
Protocol: as §3

Wheat plant response rating (0 to 100) ([3]; 31 g ai/ha): 40
Wheat plant response rating (0 to 100) ([3]; 125 g ai/ha): 70
Rice plant response rating (0 to 100) (rice (Oryza sativa)): 30
Corn plant response rating (0 to 100) (corn (Zea mays); 31 g ai/ha): 60
Corn plant response rating (0 to 100) (corn (Zea mays); 125 g ai/ha): 80
Compound: Cc1cc([C@H]2CN(C)C(=O)[C@@H]2C(=O)Nc2cccc(F)c2F)cc(OC(F)F)n1 [Cmpd. No. 4]
Ryegrass, Italian plant response rating (0 to 100) ([1]; 31 g ai/ha): 30
Ryegrass, Italian plant response rating (0 to 100) ([1]; 125 g ai/ha): 90
Barnyardgrass plant response rating (0 to 100) ([2]; 31 g ai/ha): 80
Barnyardgrass plant response rating (0 to 100) ([2]; 125 g ai/ha): 90
Ragweed plant response rating (0 to 100) ([4]; 31 g ai/ha): 0
Ragweed plant response rating (0 to 100) ([4]; 125 g ai/ha): 60
Pigweed plant response rating (0 to 100) ([5]; 31 g ai/ha): 40
Pigweed plant response rating (0 to 100) ([5]; 125 g ai/ha): 90
Blackgrass plant response rating (0 to 100) ([6]; 31 g ai/ha): 60
Blackgrass plant response rating (0 to 100) ([6]; 125 g ai/ha): 70
Ragweed plant response rating (0 to 100) ([7]; 31 g ai/ha): 0
Ragweed plant response rating (0 to 100) ([7]; 125 g ai/ha): 20
Sedge, Umbrella plant response rating (0 to 100) [8]: 0
Pigweed plant response rating (0 to 100) ([9]; 31 g ai/ha): 20
Pigweed plant response rating (0 to 100) ([9]; 125 g ai/ha): 60
Kochia plant response rating (0 to 100) (kochia (Kochia scoparia) [10]; 31 g ai/ha): 0
Kochia plant response rating (0 to 100) (kochia (Kochia scoparia) [10]; 125 g ai/ha): 80
Foxtail, Green plant response rating (0 to 100) ([11]; 31 g ai/ha): 70
Foxtail, Green plant response rating (0 to 100) ([11]; 125 g ai/ha): 90
Barnyardgrass plant response rating (0 to 100) ([12]; 31 g ai/ha): 100
Barnyardgrass plant response rating (0 to 100) ([12]; 125 g ai/ha): 100
Barnyardgrass plant response rating (0 to 100) [13]: 85
Foxtail, Green plant response rating (0 to 100) ([14]; 31 g ai/ha): 100
Foxtail, Green plant response rating (0 to 100) ([14]; 125 g ai/ha): 100
Galium plant response rating (0 to 100) ([15]; 31 g ai/ha): 0
Galium plant response rating (0 to 100) ([15]; 125 g ai/ha): 60
Kochia plant response rating (0 to 100) (kochia (Kochia scoparia) [16]; 31 g ai/ha): 0
Kochia plant response rating (0 to 100) (kochia (Kochia scoparia) [16]; 125 g ai/ha): 20
Ryegrass, Italian plant response rating (0 to 100) ([17]; 31 g ai/ha): 30
Ryegrass, Italian plant response rating (0 to 100) ([17]; 125 g ai/ha): 70
Ducksalad plant response rating (0 to 100) [18]: 100
